# Columns and labels:
# [1] = system: H460 cells (human lung cancer); assay: H460 metastatic models (Experiment 4); assay type: in vivo, mouse xenograft; design: key to Lymph node MI (Metastatic Incidence) / Liver MI (Metastatic Incidence) / Lung MI (Metastatic Incidence): number of animals with metastasis in the organ (out of 10); conditions: NCr nu/nu mice, 10 animals, checked day 36
# Procedure: Experiment 4 (H460 Metastatic Models)
# A segment (2 mm^2) of H460 cells (human lung cancer) was implanted into the left lung of 100 NCr nu/nu female mice (5 to 6 weeks old, 10 animals per group). […] On the other hand, in the control group (untreated with test compound), only a physiological saline solution was administered. The presence or absence of the metastasis of each organ was checked on the 36th day after the implantation of tumor.
# [2] = system: HT-29 cells (human colon cancer); assay: HT-29 metastatic models, dosing from day 15 (Experiment 2); assay type: in vivo, mouse; conditions: 10 animals, checked day 84; for Other organs MI (Metastatic Incidence): Diaphragm, Abdominal cavity, Thoracic cavity; for Liver MI (Metastatic Incidence) / Lung MI (Metastatic Incidence) / Lymph node MI (Metastatic Incidence) / Number of animals with metastasis: NCr nu/nu mice
# Procedure: A test compound (Compound A; the compound obtained in Preparation 1 as mentioned below, Compound B; the compound obtained in Preparation 4 as mentioned below, and Irinotechan (CPT-11)) was dissolved in a physiological saline solution, and each amount as indicated in Table 2 as mentioned below was administered intravenously to the mice on the 15th, 19th, 23rd and 25th day after the implantation of tumor. On the other hand, in the control group (untreated with test compound), only a physiological saline solution was administered. The presence or absence of the metastasis of each organ was checked on the 84th day after the implantation of tumor.
# [3] = system: HT-29 cells (human colon cancer); assay: HT-29 metastatic models, dosing after lymph node metastasis observed (Experiment 3); assay type: in vivo; conditions: 10 animals, checked day 84; for Other organs MI (Metastatic Incidence): Diaphragm, Abdominal cavity, Thoracic cavity; for Liver MI (Metastatic Incidence) / Lung MI (Metastatic Incidence) / Lymph node MI (Metastatic Incidence) / Number of animals with metastasis: NCr nu/nu mice
# Procedure: Experiment 3 (HT-29 Metastatic Models)
# A segment (2 mm^2) of HT-29 cells (human colon cancer) was implanted into the vermiform appendix of 100 NCr nu/nu female mice (5 to 6 weeks old, 10 animals per group). Since the lymph node metastasis was observed on the 49th day after the implantation of tumor, a test compound (Compound A; the compound obtained in Preparation 1 as mentioned below, and Irinotechan (CPT-11)) was dissolved in a physiological saline solution, and each amount as indicated in Table 3 as mentioned below was administered intravenously to the mice on the 51st, 55th, 59th, and 63rd day after the implantation of tumor. On the other hand, in the control group (untreated with test compound), only a physiological saline solution was administered. The presence or absence of the metastasis of each organ was checked on the 84th day after the implantation of tumor.
# [4] = system: M 5076 cells (mouse ovarian sarcoma cells); assay: M 5076 liver metastatic models (survival); assay type: in vivo; conditions: for Prolongation rate of survival (%) / Survival days: BDF1 male mice; for Prolongation rate of survival (%): vs control; for Survival days: observed 120 days
# Procedure: Experiment 1 (M 5076 Liver Metastatic Models)
# One million of M 5076 cells (mouse ovarian sarcoma cells) were implanted into BDF1 male mice (5-weeks old, 8 animals per group) at the tail vein. […] In the control group (untreated with test compound), only a physiological saline solution was administered. The survival time (days) was measured in both the test compound-treated groups and the control group, and the prolongation rate of survival was calculated according to the following equation.
# [5] = 2.5 mg/kg i.v. days 14, 18, 22, 26
# [6] = 5 mg/kg i.v. days 14, 18, 22, 26
# [7] = 2.5 mg/kg i.v. days 15, 19, 23, 25
# [8] = 5 mg/kg i.v. days 15, 19, 23, 25
# [9] = 10 mg/kg i.v. days 14, 18, 22, 26
# [10] = 20 mg/kg i.v. days 14, 18, 22, 26
# [11] = 40 mg/kg i.v. days 14, 18, 22, 26
# [12] = 10 mg/kg i.v. days 15, 19, 23, 25
# [13] = 20 mg/kg i.v. days 15, 19, 23, 25
# [14] = 40 mg/kg i.v. days 15, 19, 23, 25
# [15] = 20 mg/kg i.v. days 51, 55, 59, 63
# [16] = 40 mg/kg i.v. days 51, 55, 59, 63
# [17] = 80 mg/kg i.v. days 14, 18, 22, 26
compound,measurement,setting,value
"carboxymethyldextran-polyalcohol-(1S,9S)-1-(glycyl-glycyl-L-phenylalanyl-glycylamino)-9-ethyl-5-fluoro-2,3-dihydro-9-hydroxy-4-methyl-1H,12H-benzo[de]pyrano[3′,4′:6,7] indolizino[1,2-b]quinoline-10,13(9H,15H)-dione [Compound B]",Liver MI (Metastatic Incidence),[1]; [5],0
same,Lung MI (Metastatic Incidence),[1]; [5],0
same,Lymph node MI (Metastatic Incidence),[1]; [5],1
same,Number of animals with metastasis,[1]; [5],1
same,Liver MI (Metastatic Incidence),[1]; [6],0
same,Lung MI (Metastatic Incidence),[1]; [6],1
same,Lymph node MI (Metastatic Incidence),[1]; [6],2
same,Number of animals with metastasis,[1]; [6],2
same,Other organs MI (Metastatic Incidence),[2]; [7],1
same,Other organs MI (Metastatic Incidence),[2]; [8],0
same,Liver MI (Metastatic Incidence),[2]; [7],1
same,Lung MI (Metastatic Incidence),[2]; [7],1
same,Lymph node MI (Metastatic Incidence),[2]; [7],6
same,Number of animals with metastasis,[2]; [7],6
same,Liver MI (Metastatic Incidence),[2]; [8],0
same,Lung MI (Metastatic Incidence),[2]; [8],0
same,Lymph node MI (Metastatic Incidence),[2]; [8],0
same,Number of animals with metastasis,[2]; [8],0
CM-dextran-7-ethyl-10-[3′-(glycyl-glycyl-glycylamino)propyloxy]-(20S)-camptothecin [Compound A],Liver MI (Metastatic Incidence),[1]; [6],0
same,Lung MI (Metastatic Incidence),[1]; [6],1
same,Lymph node MI (Metastatic Incidence),[1]; [6],2
same,Number of animals with metastasis,[1]; [6],2
same,Liver MI (Metastatic Incidence),[1]; [9],0
same,Lung MI (Metastatic Incidence),[1]; [9],0
same,Lymph node MI (Metastatic Incidence),[1]; [9],1
same,Number of animals with metastasis,[1]; [9],1
same,Liver MI (Metastatic Incidence),[1]; [10],0
same,Lung MI (Metastatic Incidence),[1]; [10],2
same,Lymph node MI (Metastatic Incidence),[1]; [10],2
same,Number of animals with metastasis,[1]; [10],3
same,Liver MI (Metastatic Incidence),[1]; [11],0
same,Lung MI (Metastatic Incidence),[1]; [11],0
same,Lymph node MI (Metastatic Incidence),[1]; [11],1
same,Number of animals with metastasis,[1]; [11],1
same,Other organs MI (Metastatic Incidence),[2]; [8],2
same,Other organs MI (Metastatic Incidence),[2]; [12],0
same,Other organs MI (Metastatic Incidence),[2]; [13],0
same,Other organs MI (Metastatic Incidence),[2]; [14],0
same,Liver MI (Metastatic Incidence),[2]; [8],0
same,Lung MI (Metastatic Incidence),[2]; [8],1
same,Lymph node MI (Metastatic Incidence),[2]; [8],6
same,Number of animals with metastasis,[2]; [8],6
same,Liver MI (Metastatic Incidence),[2]; [12],0
same,Lung MI (Metastatic Incidence),[2]; [12],2
same,Lymph node MI (Metastatic Incidence),[2]; [12],8
same,Number of animals with metastasis,[2]; [12],8
same,Liver MI (Metastatic Incidence),[2]; [13],0
same,Lung MI (Metastatic Incidence),[2]; [13],1
same,Lymph node MI (Metastatic Incidence),[2]; [13],1
same,Number of animals with metastasis,[2]; [13],2
same,Liver MI (Metastatic Incidence),[2]; [14],0
same,Lung MI (Metastatic Incidence),[2]; [14],0
same,Lymph node MI (Metastatic Incidence),[2]; [14],0
same,Number of animals with metastasis,[2]; [14],0
same,Other organs MI (Metastatic Incidence),[3]; [15],1
same,Other organs MI (Metastatic Incidence),[3]; [16],2
same,Liver MI (Metastatic Incidence),[3]; [15],0
same,Lung MI (Metastatic Incidence),[3]; [15],0
same,Lymph node MI (Metastatic Incidence),[3]; [15],2
same,Number of animals with metastasis,[3]; [15],3
same,Liver MI (Metastatic Incidence),[3]; [16],0
same,Lung MI (Metastatic Incidence),[3]; [16],0
same,Lymph node MI (Metastatic Incidence),[3]; [16],0
same,Number of animals with metastasis,[3]; [16],2
same,Prolongation rate of survival (%),"[4]; 12.5 mg/kg i.v. on days 4, 8, 12",150.5%
same,Survival days,"[4]; 12.5 mg/kg i.v. on days 4, 8, 12 after implantation",37.57 days
same,Prolongation rate of survival (%),"[4]; 25 mg/kg i.v. on days 4, 8, 12",187.5%
same,Survival days,"[4]; 25 mg/kg i.v. on days 4, 8, 12 after implantation",43.13 days
same,Prolongation rate of survival (%),"[4]; 50 mg/kg i.v. on days 4, 8, 12",224.8%
same,Survival days,"[4]; 50 mg/kg i.v. on days 4, 8, 12 after implantation",48.71 days
same,activity of prolonging lifetime,"[4]; M5076 liver metastatic models, summary in words",excellent activity of prolonging lifetime
"CCc1c2c(nc3ccc(OC(=O)N4CCC(N5CCCCC5)CC4)cc13)-c1cc3c(c(=O)n1C2)COC(=O)[C@]3(O)CC [Irinotecan, reference compound]",Liver MI (Metastatic Incidence),[1]; [11],0
same,Lung MI (Metastatic Incidence),[1]; [11],1
same,Lymph node MI (Metastatic Incidence),[1]; [11],0
same,Number of animals with metastasis,[1]; [11],1
same,Liver MI (Metastatic Incidence),[1]; [17],0
same,Lung MI (Metastatic Incidence),[1]; [17],0
same,Lymph node MI (Metastatic Incidence),[1]; [17],2
same,Number of animals with metastasis,[1]; [17],2
same,Other organs MI (Metastatic Incidence),[2]; [13],0
same,Other organs MI (Metastatic Incidence),[2]; [14],1
same,Liver MI (Metastatic Incidence),[2]; [13],2
same,Lung MI (Metastatic Incidence),[2]; [13],2
same,Lymph node MI (Metastatic Incidence),[2]; [13],9
same,Number of animals with metastasis,[2]; [13],9
same,Liver MI (Metastatic Incidence),[2]; [14],0
same,Lung MI (Metastatic Incidence),[2]; [14],1
same,Lymph node MI (Metastatic Incidence),[2]; [14],7
same,Number of animals with metastasis,[2]; [14],7
same,Other organs MI (Metastatic Incidence),[3]; [16],1
same,Liver MI (Metastatic Incidence),[3]; [16],1
same,Lung MI (Metastatic Incidence),[3]; [16],0
same,Lymph node MI (Metastatic Incidence),[3]; [16],8
same,Number of animals with metastasis,[3]; [16],8
same,Prolongation rate of survival (%),"[4]; 80 mg/kg i.v. on days 4, 8, 12",50.0%
same,Survival days,"[4]; 80 mg/kg i.v. on days 4, 8, 12 after implantation",22.50 days
